Data on 1 molecule can be found in US20070243598A1, “NOVEL PSEUDONOCARDIA SP. RMRC PAH4 AND A PROCESS FOR BIOCONVERTING COMPACTIN INTO PRAVASTATIN USING THE SAME” (CHINESE PETROLEUM CORPORATION, priority 2004, published 2007).

This experiment deals with Pseudonocardia sp. RMRC PAH4. As to the kind of experiment: Tolerance of Pseudonocardia sp. RMRC PAH4 against compactin sodium. The class given is cell-based. To be noted: added after 48 hours on shaker in YMG liquid medium, 220 rpm, 28° C.; conversion rate could not exceed 30%. The procedure: The strain was inoculated in the culture medium consisting of casein hydrolysate 0.05-0.2%; yeast extract 0.05-0.2%; soluble starch 0.5-2.0%; KH2PO4 0.01-0.08%; MgSO4.7H2O 0.05-0.2%; Pravastatin sodium 0.005-0.01%; and Bacto agar 2.0%, pH 7.0, and incubated under 28° C. for 7-20 days.
The above inoculum culture was incubated in compactin sodium-containing YMG liquid medium consisting of yeast extract 0.1-1.0%; malto extract 0.1-1.0%; peptone 0.1-1.0%; glucose 0.5-2.0%; cotton seed extract (Pharmamedia) 0.5-0.5%; KH2PO4 0.1-0.5%; Na2HPO4 0.3-0.7%; MgSO4.7H2O 0.01-0.05%; FeSO4.7H2O 0.001-0.01%; MnSO4.H2O 0.001-0.01%; CaCl2 0.001-0.01%; compactin sodium 0.002-0.01%; pH 6.5, on a shaker, at 220 rpm, under 28° C.
After incubating on shaker as described above for 48 hours, 300-3,000 μg/ml of compactin sodium as added and continued the incubation under same conditions. Utilization rate of compactin sodium and conversion rate of Pravastatin sodium were analyzed by HPLC at an interval of 24 hours.

Regarding `CC[C@H](C)C(=O)O[C@H]1CCC=C2C=C[C@H](C)[C@H](CCCC[C@@H](O)CC(=O)O)[C@H]21` [compactin sodium], the “amount of compactin sodium added above which growth of the bacteria becomes considerably slow” value is “more than 2,500 μg/ml”.
